Measured values published in ChEMBL document CHEMBL5653631, “A Potent and Selective ULK1 Inhibitor Suppresses Autophagy and Sensitizes Cancer Cells to Nutrient Stress” (iScience, 2018).
One block for each molecule: values may come before it.

How the values were obtained:
[1] = biological target: Homeodomain-interacting protein kinase 1 (Homo sapiens) (UniProt Q86Z02); experiment: Inhibition of human recombinant HIPK1 at 500 nM in presence of ATP by radiometric assay relative to control
[2] = biological target: T1, Serine/threonine-protein kinase D3 (Homo sapiens) (UniProt O94806); experiment: Inhibition of human recombinant PKD3 at 500 nM in presence of ATP by radiometric assay relative to control
T1 sequence (whole entry): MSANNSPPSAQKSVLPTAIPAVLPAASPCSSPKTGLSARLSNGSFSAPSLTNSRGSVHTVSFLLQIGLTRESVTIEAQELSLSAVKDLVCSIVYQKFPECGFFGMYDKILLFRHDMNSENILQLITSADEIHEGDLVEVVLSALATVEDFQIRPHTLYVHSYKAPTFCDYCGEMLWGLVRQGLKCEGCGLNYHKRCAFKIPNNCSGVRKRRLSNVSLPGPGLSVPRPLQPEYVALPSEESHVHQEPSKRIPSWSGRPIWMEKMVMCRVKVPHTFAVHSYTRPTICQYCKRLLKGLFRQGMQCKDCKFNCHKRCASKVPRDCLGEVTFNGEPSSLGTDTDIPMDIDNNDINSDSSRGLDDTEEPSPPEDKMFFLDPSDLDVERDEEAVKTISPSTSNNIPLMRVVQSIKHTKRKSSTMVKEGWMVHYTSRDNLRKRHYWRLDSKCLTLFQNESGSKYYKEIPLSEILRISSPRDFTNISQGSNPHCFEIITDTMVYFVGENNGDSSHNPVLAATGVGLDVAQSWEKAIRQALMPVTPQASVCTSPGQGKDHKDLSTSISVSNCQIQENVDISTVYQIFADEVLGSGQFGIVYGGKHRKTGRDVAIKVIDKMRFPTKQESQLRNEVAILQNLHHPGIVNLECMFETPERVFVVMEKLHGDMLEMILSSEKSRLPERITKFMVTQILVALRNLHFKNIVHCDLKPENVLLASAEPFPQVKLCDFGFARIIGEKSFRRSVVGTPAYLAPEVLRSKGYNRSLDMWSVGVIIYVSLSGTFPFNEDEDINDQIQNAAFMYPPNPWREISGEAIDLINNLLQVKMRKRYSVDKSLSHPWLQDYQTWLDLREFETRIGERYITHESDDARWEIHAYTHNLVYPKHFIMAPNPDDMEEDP

[3] = biological target: Rho-associated protein kinase 2 (Homo sapiens) (UniProt O75116); experiment: Inhibition of human recombinant ROCK2 at 500 nM in presence of ATP by radiometric assay relative to control
[4] = biological target: Mitogen-activated protein kinase kinase kinase 20 (Homo sapiens) (UniProt Q9NYL2); experiment: Inhibition of human recombinant ZAK at 500 nM in presence of ATP by radiometric assay relative to control
[5] = biological target: Cyclin-dependent kinase 4 (Homo sapiens) (UniProt P11802); experiment: Inhibition of human recombinant CDK4 at 500 nM related to control ULK1
[6] = biological target: T2, Tribbles homolog 2 (Homo sapiens) (UniProt Q92519); experiment: Inhibition of human recombinant Trb2 at 500 nM related to control ULK1
T2 sequence (whole entry): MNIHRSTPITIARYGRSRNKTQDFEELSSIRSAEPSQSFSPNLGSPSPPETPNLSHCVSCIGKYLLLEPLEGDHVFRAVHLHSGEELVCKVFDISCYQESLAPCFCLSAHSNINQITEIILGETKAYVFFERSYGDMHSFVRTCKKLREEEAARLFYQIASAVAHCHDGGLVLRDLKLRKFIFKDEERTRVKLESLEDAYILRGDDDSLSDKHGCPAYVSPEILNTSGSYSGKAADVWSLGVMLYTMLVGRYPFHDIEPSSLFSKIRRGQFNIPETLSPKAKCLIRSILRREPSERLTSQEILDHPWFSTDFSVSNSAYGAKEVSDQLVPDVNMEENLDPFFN

[7] = biological target: Vascular endothelial growth factor receptor 3 (Homo sapiens) (UniProt P35916); experiment: Inhibition of human recombinant FLT4 at 15 nM in presence of ATP by radiometric assay relative to control
[8] = biological target: T3, cGMP-dependent protein kinase 1 (Homo sapiens) (UniProt Q13976); experiment: Inhibition of human recombinant PKG1 at 15 nM in presence of ATP by radiometric assay relative to control
T3 sequence (whole entry): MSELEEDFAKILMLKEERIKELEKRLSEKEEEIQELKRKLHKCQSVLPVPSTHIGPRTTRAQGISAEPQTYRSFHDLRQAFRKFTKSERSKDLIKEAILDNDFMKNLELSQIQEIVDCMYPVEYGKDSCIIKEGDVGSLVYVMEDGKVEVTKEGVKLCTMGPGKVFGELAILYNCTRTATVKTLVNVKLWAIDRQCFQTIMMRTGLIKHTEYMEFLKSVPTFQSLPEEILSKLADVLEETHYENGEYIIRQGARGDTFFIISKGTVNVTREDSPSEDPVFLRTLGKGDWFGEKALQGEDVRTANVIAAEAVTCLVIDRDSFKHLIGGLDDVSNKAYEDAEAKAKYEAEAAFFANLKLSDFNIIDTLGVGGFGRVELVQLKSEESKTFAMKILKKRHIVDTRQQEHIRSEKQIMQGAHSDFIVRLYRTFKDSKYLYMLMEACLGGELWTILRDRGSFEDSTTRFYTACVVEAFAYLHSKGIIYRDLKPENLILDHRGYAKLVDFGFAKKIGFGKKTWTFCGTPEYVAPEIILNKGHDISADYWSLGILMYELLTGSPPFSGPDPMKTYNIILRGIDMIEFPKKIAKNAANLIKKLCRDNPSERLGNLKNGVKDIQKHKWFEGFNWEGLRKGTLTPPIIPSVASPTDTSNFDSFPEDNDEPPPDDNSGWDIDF

[9] = biological target: Tyrosine-protein kinase JAK2 (Homo sapiens) (UniProt O60674); experiment: Inhibition of human recombinant JAK2 at 15 nM related to control ULK1
[10] = biological target: Cyclin-dependent kinase 12 (Homo sapiens) (UniProt Q9NYV4); experiment: Inhibition of human recombinant CRK7 at 40 nM in presence of ATP by radiometric assay relative to control
[11] = biological target: Protein kinase C beta type (Homo sapiens) (UniProt P05771); experiment: Inhibition of human recombinant PKCb at 40 nM in presence of ATP by radiometric assay relative to control
[12] = biological target: Serine/threonine-protein kinase PLK3 (Homo sapiens) (UniProt Q9H4B4); experiment: Inhibition of human recombinant PLK3 at 40 nM in presence of ATP by radiometric assay relative to control
[13] = biological target: Proto-oncogene tyrosine-protein kinase Src (Homo sapiens) (UniProt P12931); experiment: Inhibition of human recombinant SRC at 40 nM in presence of ATP by radiometric assay relative to control
[14] = biological target: Cyclin-dependent kinase 5 (Homo sapiens) (UniProt Q00535); experiment: Inhibition of human recombinant CDK5 at 40 nM related to control ULK1
[15] = biological target: Mitogen-activated protein kinase kinase kinase 20 (Homo sapiens) (UniProt Q9NYL2); experiment: Inhibition of human recombinant ZAK at 40 nM related to control ULK1

Sequence of Mitogen-activated protein kinase kinase kinase 20 (Homo sapiens) (Q9NYL2 2-800 limits assumed): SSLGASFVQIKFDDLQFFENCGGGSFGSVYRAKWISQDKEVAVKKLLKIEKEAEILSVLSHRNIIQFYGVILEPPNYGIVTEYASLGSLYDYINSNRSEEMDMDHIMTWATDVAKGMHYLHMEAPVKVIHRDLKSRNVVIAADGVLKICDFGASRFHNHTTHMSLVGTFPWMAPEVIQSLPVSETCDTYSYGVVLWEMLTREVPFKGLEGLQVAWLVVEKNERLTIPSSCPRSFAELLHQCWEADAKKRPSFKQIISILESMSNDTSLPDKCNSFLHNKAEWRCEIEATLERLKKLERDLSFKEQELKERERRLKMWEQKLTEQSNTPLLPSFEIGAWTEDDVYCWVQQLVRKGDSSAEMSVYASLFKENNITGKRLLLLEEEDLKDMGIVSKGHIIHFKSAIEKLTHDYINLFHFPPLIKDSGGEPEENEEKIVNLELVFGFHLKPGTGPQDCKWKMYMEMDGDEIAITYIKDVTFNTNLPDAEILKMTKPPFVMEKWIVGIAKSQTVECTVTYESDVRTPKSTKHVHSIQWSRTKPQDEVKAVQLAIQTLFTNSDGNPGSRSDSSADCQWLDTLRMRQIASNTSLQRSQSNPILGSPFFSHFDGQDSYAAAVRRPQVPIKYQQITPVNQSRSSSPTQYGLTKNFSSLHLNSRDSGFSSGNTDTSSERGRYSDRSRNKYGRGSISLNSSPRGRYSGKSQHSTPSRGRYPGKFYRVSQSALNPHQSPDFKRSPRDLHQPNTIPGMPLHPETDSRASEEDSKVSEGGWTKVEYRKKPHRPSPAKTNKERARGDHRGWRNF
Sequence of Protein kinase C beta type (Homo sapiens) (P05771 2-671 limits assumed): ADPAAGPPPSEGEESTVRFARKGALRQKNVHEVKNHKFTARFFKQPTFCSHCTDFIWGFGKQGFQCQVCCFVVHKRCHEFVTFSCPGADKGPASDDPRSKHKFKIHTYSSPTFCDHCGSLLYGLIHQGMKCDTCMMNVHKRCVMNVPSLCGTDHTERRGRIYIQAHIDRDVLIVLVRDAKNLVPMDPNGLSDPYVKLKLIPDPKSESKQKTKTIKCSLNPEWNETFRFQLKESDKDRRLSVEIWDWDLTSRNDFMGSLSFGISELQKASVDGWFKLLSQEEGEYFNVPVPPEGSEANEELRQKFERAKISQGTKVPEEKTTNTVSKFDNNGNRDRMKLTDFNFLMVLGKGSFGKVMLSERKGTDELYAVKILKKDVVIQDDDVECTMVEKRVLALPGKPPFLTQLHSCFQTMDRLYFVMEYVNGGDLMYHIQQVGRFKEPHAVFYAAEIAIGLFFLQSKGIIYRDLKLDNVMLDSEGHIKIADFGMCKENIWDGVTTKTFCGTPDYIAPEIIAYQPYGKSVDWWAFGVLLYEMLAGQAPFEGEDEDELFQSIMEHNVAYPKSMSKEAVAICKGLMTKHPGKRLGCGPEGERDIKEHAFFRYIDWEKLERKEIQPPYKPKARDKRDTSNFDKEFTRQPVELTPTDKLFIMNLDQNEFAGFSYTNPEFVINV
Sequence of Cyclin-dependent kinase 4 (Homo sapiens) (P11802 whole entry): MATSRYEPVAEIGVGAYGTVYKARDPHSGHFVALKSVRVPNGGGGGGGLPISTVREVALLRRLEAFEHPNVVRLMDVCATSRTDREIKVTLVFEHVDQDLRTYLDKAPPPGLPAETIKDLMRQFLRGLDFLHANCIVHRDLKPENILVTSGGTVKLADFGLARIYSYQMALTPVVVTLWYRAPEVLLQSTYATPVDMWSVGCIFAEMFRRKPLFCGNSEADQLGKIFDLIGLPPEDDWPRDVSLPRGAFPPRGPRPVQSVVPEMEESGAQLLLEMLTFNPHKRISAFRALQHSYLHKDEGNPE
Sequence of Rho-associated protein kinase 2 (Homo sapiens) (O75116 whole entry, looked up): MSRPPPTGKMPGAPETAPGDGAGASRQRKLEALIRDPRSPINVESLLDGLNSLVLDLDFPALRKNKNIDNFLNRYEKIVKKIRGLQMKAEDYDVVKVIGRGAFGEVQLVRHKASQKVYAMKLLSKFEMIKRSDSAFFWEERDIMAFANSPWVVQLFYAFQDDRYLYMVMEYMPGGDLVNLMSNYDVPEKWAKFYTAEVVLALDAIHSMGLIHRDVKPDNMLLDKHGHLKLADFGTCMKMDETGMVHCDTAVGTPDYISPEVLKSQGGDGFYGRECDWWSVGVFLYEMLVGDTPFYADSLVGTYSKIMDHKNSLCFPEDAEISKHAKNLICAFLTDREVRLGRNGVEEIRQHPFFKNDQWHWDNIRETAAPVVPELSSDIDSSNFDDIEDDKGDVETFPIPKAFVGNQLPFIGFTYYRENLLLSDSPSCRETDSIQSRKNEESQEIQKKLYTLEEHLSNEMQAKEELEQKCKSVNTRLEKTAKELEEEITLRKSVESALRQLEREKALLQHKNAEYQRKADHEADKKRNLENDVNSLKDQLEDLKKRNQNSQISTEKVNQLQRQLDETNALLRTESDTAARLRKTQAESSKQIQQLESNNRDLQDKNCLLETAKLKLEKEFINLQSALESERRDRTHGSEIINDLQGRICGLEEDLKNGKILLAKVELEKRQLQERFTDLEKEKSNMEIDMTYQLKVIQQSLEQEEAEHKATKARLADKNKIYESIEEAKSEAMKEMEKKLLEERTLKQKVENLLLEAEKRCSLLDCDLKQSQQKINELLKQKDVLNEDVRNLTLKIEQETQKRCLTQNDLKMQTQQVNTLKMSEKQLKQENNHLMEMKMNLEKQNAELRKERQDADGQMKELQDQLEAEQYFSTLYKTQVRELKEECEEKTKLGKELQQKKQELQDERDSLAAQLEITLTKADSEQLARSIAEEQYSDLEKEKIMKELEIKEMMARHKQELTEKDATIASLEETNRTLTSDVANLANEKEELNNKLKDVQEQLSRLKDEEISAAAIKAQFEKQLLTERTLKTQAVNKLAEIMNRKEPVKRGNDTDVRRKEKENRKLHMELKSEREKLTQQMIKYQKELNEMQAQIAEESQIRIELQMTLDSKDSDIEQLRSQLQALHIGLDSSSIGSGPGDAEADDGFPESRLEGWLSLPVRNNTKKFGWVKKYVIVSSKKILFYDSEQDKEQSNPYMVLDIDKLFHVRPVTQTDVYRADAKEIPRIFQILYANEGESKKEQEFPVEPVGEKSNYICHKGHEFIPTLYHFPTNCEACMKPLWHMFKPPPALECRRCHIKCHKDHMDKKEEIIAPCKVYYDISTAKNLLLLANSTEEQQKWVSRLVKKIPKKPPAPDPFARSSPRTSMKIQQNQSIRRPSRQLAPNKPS
Sequence of Vascular endothelial growth factor receptor 3 (Homo sapiens) (P35916 whole entry): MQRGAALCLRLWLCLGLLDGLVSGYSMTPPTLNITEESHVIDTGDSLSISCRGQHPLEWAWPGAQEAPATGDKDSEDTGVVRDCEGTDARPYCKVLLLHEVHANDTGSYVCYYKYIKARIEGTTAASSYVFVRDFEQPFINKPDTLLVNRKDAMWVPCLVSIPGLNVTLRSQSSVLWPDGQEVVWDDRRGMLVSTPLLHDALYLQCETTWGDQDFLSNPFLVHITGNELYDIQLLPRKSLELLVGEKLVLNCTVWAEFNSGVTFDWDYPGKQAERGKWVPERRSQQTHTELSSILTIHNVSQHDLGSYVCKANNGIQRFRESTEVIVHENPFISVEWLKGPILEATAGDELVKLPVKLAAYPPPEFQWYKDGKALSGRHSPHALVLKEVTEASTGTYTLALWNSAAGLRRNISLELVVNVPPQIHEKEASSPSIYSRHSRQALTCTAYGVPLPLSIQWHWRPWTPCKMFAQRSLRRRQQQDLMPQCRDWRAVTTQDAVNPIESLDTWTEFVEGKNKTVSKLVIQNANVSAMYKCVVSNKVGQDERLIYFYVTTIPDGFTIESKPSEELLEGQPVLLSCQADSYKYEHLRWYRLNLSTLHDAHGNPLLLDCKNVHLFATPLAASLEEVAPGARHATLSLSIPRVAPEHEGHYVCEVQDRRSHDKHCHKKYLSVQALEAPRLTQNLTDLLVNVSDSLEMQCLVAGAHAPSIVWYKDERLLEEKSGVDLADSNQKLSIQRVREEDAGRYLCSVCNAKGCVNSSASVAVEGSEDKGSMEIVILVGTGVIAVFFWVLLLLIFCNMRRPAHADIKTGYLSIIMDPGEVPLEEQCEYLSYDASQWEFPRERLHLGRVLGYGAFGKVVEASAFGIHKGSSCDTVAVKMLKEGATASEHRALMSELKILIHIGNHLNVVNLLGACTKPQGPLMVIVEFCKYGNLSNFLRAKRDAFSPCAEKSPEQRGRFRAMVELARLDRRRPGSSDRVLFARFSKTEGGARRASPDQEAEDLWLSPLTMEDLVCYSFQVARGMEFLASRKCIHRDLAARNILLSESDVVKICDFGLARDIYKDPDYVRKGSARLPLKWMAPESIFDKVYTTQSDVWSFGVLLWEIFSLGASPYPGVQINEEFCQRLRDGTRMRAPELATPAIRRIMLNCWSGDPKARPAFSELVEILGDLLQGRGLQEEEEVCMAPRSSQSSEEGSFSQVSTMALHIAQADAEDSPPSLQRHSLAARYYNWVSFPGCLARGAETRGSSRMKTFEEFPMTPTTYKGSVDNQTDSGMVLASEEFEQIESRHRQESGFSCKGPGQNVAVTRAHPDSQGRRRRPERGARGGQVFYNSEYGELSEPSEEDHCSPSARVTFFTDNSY
Sequence of Proto-oncogene tyrosine-protein kinase Src (Homo sapiens) (P12931 2-536 limits assumed): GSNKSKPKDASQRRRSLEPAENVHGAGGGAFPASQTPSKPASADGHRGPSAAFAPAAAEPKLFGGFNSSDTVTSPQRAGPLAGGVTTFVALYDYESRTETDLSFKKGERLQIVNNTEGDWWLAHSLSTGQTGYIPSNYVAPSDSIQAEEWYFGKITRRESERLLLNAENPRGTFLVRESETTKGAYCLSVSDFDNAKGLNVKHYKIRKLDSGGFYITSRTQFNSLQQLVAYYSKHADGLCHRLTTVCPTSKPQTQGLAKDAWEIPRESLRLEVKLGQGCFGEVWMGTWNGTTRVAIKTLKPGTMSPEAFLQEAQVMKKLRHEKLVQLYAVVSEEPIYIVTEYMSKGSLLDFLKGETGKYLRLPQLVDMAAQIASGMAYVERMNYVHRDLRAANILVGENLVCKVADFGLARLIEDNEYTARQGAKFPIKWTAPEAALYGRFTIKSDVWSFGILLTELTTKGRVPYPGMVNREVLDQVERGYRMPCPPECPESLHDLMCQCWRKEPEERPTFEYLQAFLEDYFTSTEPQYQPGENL

inhibition [1]: 3%
inhibition [2]: 0%
inhibition [3]: 0%
inhibition [4]: 1%
fold change (FC) [5]: 0
fold change (FC) [6]: 0
Structure (SMILES): CNC(=O)c1ccccc1Oc1nc(Nc2cc(OC)c(OC)c(OC)c2)ncc1Br

inhibition [7]: 35%
inhibition [8]: 0%
fold change (FC) [9]: 0.07
Structure (SMILES): CC(C)[C@H](NC(=O)c1cc(-c2cnn3cc(-c4ccc(OCCN5CCCCC5)cc4)cnc23)cs1)C(F)(F)F

inhibition [10]: 7%
inhibition [11]: 3%
inhibition [12]: 0%
inhibition [13]: 2%
fold change (FC) [14]: 0.64
fold change (FC) [15]: 0
Structure (SMILES): O=C(N[C@@H](C1CC1)C(F)(F)F)c1cc(-c2cnn3cc(-c4ccc(F)cc4)cnc23)cs1
